Experimental data as given in publication PMC6389425 (Journal of molecular biology, 2019).
Where a chain is given by its changes, count along the chain named.

Columns and labels:
Fp2GUS [1] = target: T1, Fp2GUS (Faecalibacterium prausnitzii, UniProt D4K3H3); assay: fluorescence of 4-methylumbelliferone release, initial rates; type: biochemical; details: pH 6.5 HEPES or pH 5.5 acetate; FMN added (5 μL of 25 μM in 50 μL)
T1 sequence (D4K3H3 1-746): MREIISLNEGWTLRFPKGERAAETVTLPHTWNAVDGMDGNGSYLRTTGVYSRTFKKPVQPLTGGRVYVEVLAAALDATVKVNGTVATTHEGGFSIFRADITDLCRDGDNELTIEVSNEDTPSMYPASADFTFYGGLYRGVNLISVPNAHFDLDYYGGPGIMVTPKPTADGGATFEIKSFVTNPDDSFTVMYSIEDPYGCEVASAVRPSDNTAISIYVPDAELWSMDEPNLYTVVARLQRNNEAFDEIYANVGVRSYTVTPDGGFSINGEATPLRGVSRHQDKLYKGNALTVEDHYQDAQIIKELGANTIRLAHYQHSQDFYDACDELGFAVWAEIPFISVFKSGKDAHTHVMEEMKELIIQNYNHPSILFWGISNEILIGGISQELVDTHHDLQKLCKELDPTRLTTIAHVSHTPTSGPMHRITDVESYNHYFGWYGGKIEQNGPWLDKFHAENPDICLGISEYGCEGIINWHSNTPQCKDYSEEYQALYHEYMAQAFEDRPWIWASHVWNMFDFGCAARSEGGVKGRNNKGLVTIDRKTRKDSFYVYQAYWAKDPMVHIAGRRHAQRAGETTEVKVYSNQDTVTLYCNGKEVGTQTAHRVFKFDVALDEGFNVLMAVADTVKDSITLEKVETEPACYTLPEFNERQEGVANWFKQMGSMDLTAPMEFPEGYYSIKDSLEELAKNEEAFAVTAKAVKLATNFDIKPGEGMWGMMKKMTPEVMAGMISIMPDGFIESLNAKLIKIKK

Rh2GUS [2] = target: T2, Rh2GUS (Roseburia hominis, UniProt Z9OYF2D7T4, Y182A); assay: as above; type: biochemical; details: pH 6.5 HEPES or pH 5.5 acetate; no FMN added
T2 sequence (Z9OYF2D7T4 24-780 Y182A): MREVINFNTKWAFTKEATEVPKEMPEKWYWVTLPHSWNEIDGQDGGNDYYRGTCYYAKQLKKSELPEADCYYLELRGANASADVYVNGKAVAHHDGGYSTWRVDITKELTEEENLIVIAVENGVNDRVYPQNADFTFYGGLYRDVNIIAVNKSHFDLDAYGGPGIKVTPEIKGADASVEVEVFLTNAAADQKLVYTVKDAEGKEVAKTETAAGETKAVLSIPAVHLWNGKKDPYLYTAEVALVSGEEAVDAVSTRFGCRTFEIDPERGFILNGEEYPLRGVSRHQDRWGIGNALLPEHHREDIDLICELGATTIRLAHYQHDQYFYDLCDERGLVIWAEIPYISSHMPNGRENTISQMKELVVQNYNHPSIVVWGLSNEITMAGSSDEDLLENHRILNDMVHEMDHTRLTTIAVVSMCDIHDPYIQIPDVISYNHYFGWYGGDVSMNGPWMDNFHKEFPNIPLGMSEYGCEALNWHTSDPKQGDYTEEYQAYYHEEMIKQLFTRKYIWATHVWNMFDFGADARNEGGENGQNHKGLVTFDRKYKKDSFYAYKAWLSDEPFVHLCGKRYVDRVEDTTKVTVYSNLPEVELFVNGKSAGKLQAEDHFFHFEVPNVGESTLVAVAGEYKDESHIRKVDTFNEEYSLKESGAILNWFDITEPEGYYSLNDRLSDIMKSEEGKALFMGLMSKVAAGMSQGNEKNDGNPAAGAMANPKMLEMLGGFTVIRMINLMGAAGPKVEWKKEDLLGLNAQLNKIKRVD

RiGUS = target: T3, RiGUS (Roseburia inulinivorans, UniProt Z9MQZ9NYJ7); assay: as above; type: biochemical; details: pH 6.5 HEPES or pH 5.5 acetate; FMN added (5 μL of 25 μM in 50 μL)
T3 sequence (Z9MQZ9NYJ7 1-736): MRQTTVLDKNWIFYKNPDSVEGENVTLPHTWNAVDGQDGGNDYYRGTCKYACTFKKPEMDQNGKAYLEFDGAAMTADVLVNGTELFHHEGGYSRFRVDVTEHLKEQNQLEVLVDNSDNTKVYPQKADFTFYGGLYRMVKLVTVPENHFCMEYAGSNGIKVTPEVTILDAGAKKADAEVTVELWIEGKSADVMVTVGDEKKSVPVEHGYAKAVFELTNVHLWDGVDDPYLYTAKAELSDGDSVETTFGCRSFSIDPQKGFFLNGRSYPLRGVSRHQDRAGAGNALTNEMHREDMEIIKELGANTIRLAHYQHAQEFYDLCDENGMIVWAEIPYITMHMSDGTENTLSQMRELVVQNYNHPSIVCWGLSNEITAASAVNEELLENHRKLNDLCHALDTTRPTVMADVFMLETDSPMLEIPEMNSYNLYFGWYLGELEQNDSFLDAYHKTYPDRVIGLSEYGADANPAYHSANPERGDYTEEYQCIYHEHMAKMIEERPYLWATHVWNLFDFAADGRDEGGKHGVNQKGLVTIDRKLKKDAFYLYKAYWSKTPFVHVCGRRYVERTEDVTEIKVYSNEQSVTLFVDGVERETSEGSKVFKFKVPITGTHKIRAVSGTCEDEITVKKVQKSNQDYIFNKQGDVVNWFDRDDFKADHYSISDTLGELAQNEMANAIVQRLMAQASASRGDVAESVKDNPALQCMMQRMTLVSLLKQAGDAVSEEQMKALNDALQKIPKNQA

Rg3GUS = target: T4, Rg3GUS (Mediterraneibacter gnavus, UniProt Z9EEQ2OTY4); assay: as above; type: biochemical; details: pH 6.5 HEPES or pH 5.5 acetate; FMN added (5 μL of 25 μM in 50 μL)
T4 sequence (Z9EEQ2OTY4 24-777): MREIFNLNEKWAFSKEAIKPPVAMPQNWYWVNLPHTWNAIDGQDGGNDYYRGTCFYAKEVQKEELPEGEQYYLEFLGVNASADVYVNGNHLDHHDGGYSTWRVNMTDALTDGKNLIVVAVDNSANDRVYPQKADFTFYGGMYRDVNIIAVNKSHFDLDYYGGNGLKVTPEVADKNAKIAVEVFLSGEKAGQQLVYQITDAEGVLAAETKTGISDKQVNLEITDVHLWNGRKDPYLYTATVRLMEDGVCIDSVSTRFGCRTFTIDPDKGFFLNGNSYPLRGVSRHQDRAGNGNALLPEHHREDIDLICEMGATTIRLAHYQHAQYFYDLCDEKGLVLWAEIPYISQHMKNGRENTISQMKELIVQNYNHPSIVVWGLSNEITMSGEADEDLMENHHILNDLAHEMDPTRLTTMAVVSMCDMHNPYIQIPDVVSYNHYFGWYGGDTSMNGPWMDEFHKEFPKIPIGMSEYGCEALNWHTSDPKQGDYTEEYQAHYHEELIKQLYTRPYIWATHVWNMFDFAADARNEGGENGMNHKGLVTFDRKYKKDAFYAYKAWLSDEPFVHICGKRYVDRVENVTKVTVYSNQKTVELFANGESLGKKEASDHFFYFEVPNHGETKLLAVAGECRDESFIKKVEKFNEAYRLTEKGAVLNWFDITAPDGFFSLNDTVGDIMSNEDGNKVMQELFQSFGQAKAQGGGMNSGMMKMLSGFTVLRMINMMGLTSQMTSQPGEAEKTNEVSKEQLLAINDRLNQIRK

Rh2GUS [3] = target: T5, Rh2GUS (Roseburia hominis, UniProt Z9OYF2D7T4); assay: as above; type: biochemical; details: pH 6.5 HEPES or pH 5.5 acetate; FMN added (5 μL of 25 μM in 50 μL)
T5 sequence (Z9OYF2D7T4 24-780): T2 sequence (Z9OYF2D7T4 24-780 Y182A) with A159Y

Fp2GUS [4] = target: T1, Fp2GUS; assay: isothermal titration calorimetry; type: binding
BvGUS = assay: isothermal titration calorimetry; type: binding, Butyrivibrio fibrisolvens; details: 25 °C; 20 mM HEPES, 50 mM NaCl, pH 7.4

| Kd (Fp2GUS [4]) | Kd (BvGUS) | Structure (SMILES) | KM (Fp2GUS [1]) | KM (Rh2GUS [2]) | KM (RiGUS) | KM (Rg3GUS) | KM (Rh2GUS [3]) |
| --- | --- | --- | --- | --- | --- | --- | --- |
|  |  | Cc1cc(=O)oc2cc(O[C@@H]3O[C@H](C(=O)O)[C@@H](O)[C@H](O)[C@H]3O)ccc12 [4-MUG] | Each GUS was able to hydrolyze the fluorescent reporter substrate 4-methylumbelliferyl glucuronide (4-MUG) | FMN-binding mutants of Rh2GUS, Rg3GUS, and BvGUS all display significantly higher KM values than WT | Each GUS was able to hydrolyze the fluorescent reporter substrate 4-methylumbelliferyl glucuronide (4-MUG) | Each GUS was able to hydrolyze the fluorescent reporter substrate 4-methylumbelliferyl glucuronide (4-MUG) | Each GUS was able to hydrolyze the fluorescent reporter substrate 4-methylumbelliferyl glucuronide (4-MUG) |
| 1050 ± 60 nM | 1270 nM | Cc1cc2nc3c(=O)[nH]c(=O)nc-3n(C[C@H](O)[C@H](O)[C@H](O)COP(=O)(O)O)c2cc1C [FMN] |  |  |  |  |  |
